The target of one experiment is T1, PPARγ (Homo sapiens, UniProt P37231).
T1 construct: expressed in transfected cells; host or cells: HEK293A
T1 sequence (P37231 1-505): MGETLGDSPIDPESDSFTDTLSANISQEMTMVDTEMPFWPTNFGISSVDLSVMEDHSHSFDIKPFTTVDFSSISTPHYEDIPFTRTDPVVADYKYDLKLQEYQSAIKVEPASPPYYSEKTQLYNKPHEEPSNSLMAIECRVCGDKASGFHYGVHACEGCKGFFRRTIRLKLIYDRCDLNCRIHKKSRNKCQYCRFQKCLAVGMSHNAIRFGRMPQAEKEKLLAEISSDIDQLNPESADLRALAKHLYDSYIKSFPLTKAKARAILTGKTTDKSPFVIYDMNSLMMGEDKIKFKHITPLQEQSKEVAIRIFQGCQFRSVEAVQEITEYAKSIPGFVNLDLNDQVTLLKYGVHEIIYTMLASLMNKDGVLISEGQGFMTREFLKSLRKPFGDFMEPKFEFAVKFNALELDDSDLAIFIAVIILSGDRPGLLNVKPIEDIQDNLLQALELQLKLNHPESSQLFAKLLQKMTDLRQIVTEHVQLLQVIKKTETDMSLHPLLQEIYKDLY
Description: GAL4-transactivation assay in HEK293A cells, PPARγ. It is filed as cell-based. To be noted: GAL4 reporter, 24 h, compared with rosiglitazone. The procedure: A GAL4-transactivation assay experiment was performed to determine whether the drug was bound to the PPAR ligand binding site. HEK293A cells were transfected with GAL4-reporter plasmid and pGL4.74 (Promega, Madison, WI, USA) as an internal standard via electroporation using the Neon Transfection System (Invitrogen, Carlsbad, CA, USA). All vectors were kindly provided by Professor Kanno Yuichiro, Toho University, Japan. After overnight culture, cells were treated with DTMB and each positive control compound for 24 h. Cells were then harvested, resuspended in luciferase lysis buffer (Promega), and incubated on ice for 10 min. Cell debris was removed by centrifugation at 20,000×g, 4° C. for 10 min, and the supernatant was used for the luciferase assay. Luciferase activity was measured using the Dual Luciferase Reporter Assay System (Promega) according to the manufacturer's instructions. In the measurement experiment, firefly luciferase activity was normalized to Renilla luciferase activity. To investigate the concentration-dependent effect of DTMB drug, EC50 values were measured by treating various concentrations of DTMB.

For another experiment, the system named is NF-κB. Description: NF-κB gene expression by qPCR after MG132 and DTMB. The following applies: MG132 (20 μM) 6 hours, DTMB (25 μM) 24 hours. Type of experiment: cell-based. The procedure:
In addition, to inhibit proteasomal degradation, cells were treated with MG132 (20 μM) for 6 hours and DTMB (25 μM) for 24 hours, and then the gene expression level of NF-κB was confirmed by qPCR analysis. As shown in the results of FIGS. 2L and 2M, this response was mediated by proteasomal degradation rather than transcriptional inhibition, since there was no change in the mRNA level of NF-κB.

Experiment [1] relates to 5×FAD mice. Description: Western blot of NLRP3, NF-κB and ASC in hippocampal tissue. To be noted: hippocampal brain lysate. It is filed as in vivo, mouse. The procedure: The protein levels of NLRP3, NF-κB, and ASC in the hippocampal tissues isolated from 5×FAD mice and DTMB-treated 5×FAD mice were confirmed by Western blot. Western blot analysis was performed in the same manner as in Example 2-4 using primary antibodies against NLRP3, NF-κB, and ASC (Cell Signaling Technology, Danvers, MA, USA).

In experiment [2] the test system is 5×FAD mice. The experiment is described as follows: RT-PCR of adult microglia isolated from brains of treated mice. It is filed as in vivo, mouse. The following applies: microglia isolated from 5×FAD mice administered DTMB. As for the experimental part:
To elucidate whether the gliosis reduction effect of DTMB administration confirmed in Example 6 was due to functional changes in microglia, brain tissues from mice administered DTMB were extracted, microglia were isolated, and the expression of genes related to inflammation and activation in microglia was analyzed to what extent they changed.
To isolate adult microglia from the brains of 5×FAD mice treated with DTMB or vehicle, a magnetic-activated cell sorting (MACS) system was used. Whole brain tissue was dissociated to the single-cell level using the gentleMACs dissociation kit (Miltenyi Biotech, Bergisch Gladbach, Germany) according to the manufacturer's instructions. To isolate the immune cell fraction, a 47% Percoll concentration gradient was applied to the single-cell mixture and centrifuged at 2,000 rpm for 10 min. Adult microglia were isolated by LS column after incubation with anti-CD11b MicroBeads (Miltenyi Biotech). RT-PCR was performed using the isolated adult microglia to analyze the expression of microglial activation and inflammation-related genes. The sample size was 3 mice per group.

On to `COc1ccc(-c2cc(=O)oc3c(C)c(OC(=O)[C@H](Cc4c[nH]c5ccccc45)NC(=O)OC(C)(C)C)ccc23)cc1` [DTMB, [4-(4-Methoxyphenyl)-8-methyl-2-oxochromen-7-yl](2S)-3-(1H-indol-3-yl)-2-[(2-methylpropan-2-yl)oxycarbonylamino]propanoate], for which, at PPARγ, the “PPARγ activation versus positive control” value is “activated at a slightly higher concentration than GW501516 and rosiglitazone, respectively”. The “mRNA level of NF-κB” value in the experiment on NF-κB is on record as “no change”. In addition, in the experiment with 5×FAD mice [1], the ASC level result was “did not change significantly”, the “Protein level of NF-κB” value is “decreased” and the “Protein level of NLRP3” value is on record as “decreased”. Further, in the experiment on 5×FAD mice [2], the “Gene expression of Cxcl10” value is recorded as “decreased”, the “Gene expression of IL-1β” value is “decreased”, the “Gene expression of IL-6” value is “decreased” and the “Gene expression of Iba-1” value is “decreased”. Further, in the experiment with 5×FAD mice [2], the “Gene expression of Itgax2” value is on record as “decreased”, the “Gene expression of TNF-α” value is reported as “decreased”, the “Gene expression of Trem2” value is listed as “decreased” and the “Gene expression of clec7a” value is “decreased”.
